# Measured values published in patent publication US11576901B2, “Methods for treating viral infection” (HOWARD UNIVERSITY, priority 2016, dated 2023).
# Tests used:
# Type in all cases: cell-based
# CEM T cells = experiment: Percent of viable CEM T cells after infection; settings: CEM T cells after infection with HIV1 modified pNL4-3.Luc.R-E-virus; FIG. 3
# From the text: It is possible that the diminished expression of a protein within the genome of a virus containing an IRES sequence may have been brought about by the compound inhibiting the ability infected cells to survive. If the compound or salt diminishes viability or is otherwise toxic to the cell, then diminished expression of a protein within the genome of a virus containing an IRES sequence may be the result of infected cells dying before sufficient levels of the protein can be expressed. Determining if diminished expression of a protein is the result of cell death or other toxic effects of the compound or salt may be accomplished by assessing the viability of cells after administration of the compound or salt. Accordingly, in some embodiments of assessing the ability of a compound in accordance with General Formula 1, including derivatives in accordance with any of General Formulae 1-1 to 1-20, or pharmaceutically acceptable salts thereof, to inhibit the expression of at least a portion of a virus genome containing an IRES sequence, the compound or salt may be assessed for its ability to preserve viability of cells following administration. […]
# HSV-1 [1] = experiment: Plaque forming assay, Hep-2 cell monolayers infected with HSV-1; settings: Hep-2 cells, 100 μM
# Description: The ability of a virus to infect cells can be assessed using a plaque assay. In a plaque assay, an infected cell culture is grown under a nutrient gel. During culturing, the virus being study infects cells and replicates. However, the spread of virus to other cells is limited by the overlaying nutrient gel. As such, replicated virus released from one infected cell can only infect neighboring cells. The spread of virus amongst neighboring cells creates a plaque that can be visualized by staining. By counting the visible plaques, the amount of plaque forming units (pfu) per mL can be determined. If cells treated with a compound display a reduced amount of pfu compared to cells not treated with the compound after being infected with same amount of viral particles, then the reduction in pfu would have to be result of the ability of the […] virus. Thus, the ability of a compound in accordance with General Formula 1, including derivatives in accordance with any of General Formulae 1-1 to 1-20, to inhibit the ability of HSV-1 to proliferate can be assessed with a plaque assay.
# Hep-2 cell monolayers were placed in well plates. The plated Hep-2 cells were treated with either DSMO as a control, 100 μM SD-29 or 100 μM SD29-12. A total of 6 well plates were prepared for each treatment condition. To each treated well plate an HSV-1 infecting solution comprising 1 mL of supernatants containing of the same amount of serially diluted HSV-1 particles were added. Accordingly, the treated well plates were infected with infection solutions containing the same amount of HSV-1 particles. After adsorption for 2 hours, the medium was removed and the treated cells were washed twice with serum-free DMEM and overlaid with phenol-free DMEM containing 5% FCS, 0.5% low-melting point agarose (GIBCO), and 1% penicillin-streptomycin. After either 0, 6, 12, 24 hours, the plaques present in each treated well plate were stained red and the number of plaques presented counted. Table 1 reports the mean plaque forming unit (pfu) determined for each treated well plate after averaging the number of pfu from the different plates receiving the same treatment.
# RACK-1 = target: T1, RACK-1 (Homo sapiens, UniProt P63244); experiment: Western assay of RACK-1 expression in HSV-1 infected Hep-2 cells; settings: 100 μM, 24 hours pretreatment, twenty hours after infection, FIG. 6
# T1 construct: endogenous in cells; host or cells: Hep-2 cells infected with HSV-1
# Description: FIG. 6 is a Western assay showing expression of RACK-1, the IE protein ICP0, DE protein ICP8 and the L protein gD following infection of Hep-2 cells at varying multiplicity of infection (MOI) of HSV-1. In FIG. 6, ICP0 designates immediate early viral protein, ICP8 designates early viral protein, and dD designates late viral protein. Tubulin was used as a sample loading control. Prior to infection, Hep-2 cells were treated with DSMO as a control, 100 μM SD-29 or 100 μM SD29-12. After 24 hours of pretreatment, the Hep-2 cells were infected with HSV-1 at either 0.01, 0.05, 0.25 or 1.25 MOI (from 0.01 to 1.25). Twenty hours after infection, whole cell lysate samples were obtained and the Western assay shown in FIG. 6 was performed to examine protein levels.
# HSV-1 [2] = experiment: Western assay of IE, DE and L HSV-1 proteins (ICP0, ICP8, gD) in infected Hep-2 cells; settings: 100 μM, 24 hours pretreatment, HSV-1 0.01 to 1.25 MOI, twenty hours after infection, FIG. 6
# From the text: Compounds in accordance with General Formula 1, including derivatives in accordance with any of General Formulae 1-1 to 1-20, can be evaluated for the capacity to inhibit triggered expression of at least a portion of a virus genome containing an IRES sequence by administering the compound, or a pharmaceutically acceptable salt of the compound, to a cell culture and exposing the cell culture to a HSV-1 infection. After a sufficient amount of time, the culture can be examined to determine the expression of IE, DE and L genes. If the amount of at least one protein corresponding to an IE gene and at least one protein corresponding to a DE and/or L gene within the viral genome is diminished compared to that within an identical infected cell culture not treated with the compound or its salt, then the compound would be capable of inhibiting triggered expression of at least a portion of the viral genome. […]
# Compounds in accordance with General Formula 1, including derivatives in accordance with any of General Formulae 1-1 to 1-20, or pharmaceutically acceptable salts thereof, can be assessed for the ability to inhibit triggered expression of at least a portion of the HSV-1 genome by infecting Hep-2 cells with the HSV-1 virus. […]
structure (smiles),measurement,setting,value
Nn1c(S)nnc1-c1ccc(F)cc1 [SD-29],viability of the infected cells,CEM T cells,did not decrease viability
same,mean plaque forming unit (pfu),HSV-1 [1]; 0 hpi,0 pfu
same,mean plaque forming unit (pfu),HSV-1 [1]; 6 hpi,0 pfu
same,mean plaque forming unit (pfu),HSV-1 [1]; 12 hpi,100 pfu
same,mean plaque forming unit (pfu),HSV-1 [1]; 24 hpi,180000 pfu
same,number of pfu compared to DMSO control (in words),HSV-1 [1]; Table 1 and FIG. 7,reduced number of pfu compared to control
same,expression of RACK-1,RACK-1,reduced expression of RACK-1
same,"expression of IE, DE and L HSV-1 proteins (triggered expression)",HSV-1 [2],significantly inhibited triggered expression
